Test results reported in patent US7994209B2, “3-phenoxymethylpyrrolidine compounds” (Theravance, Inc., priority 2009, dated 2011).

Assays:
hNET [1] = biological target: T1, hNET (Homo sapiens, UniProt P23975); test: hNET membrane radioligand binding assay (3H-nisoxetine), Assay 1
hSERT [2] = biological target: T2, hSERT (Homo sapiens, UniProt P31645); test: hSERT neurotransmitter uptake assay (3H-5-HT), Assay 2; assay type: cell-based; parameters: expressed in transfected cells; host or cells: HEK-293; details: serotonin reuptake inhibition, 3H-5-HT uptake, HEK-293 hSERT cells (values without asterisk); read-out: SERT pIC50 (converted)
T2 sequence (P31645 whole entry): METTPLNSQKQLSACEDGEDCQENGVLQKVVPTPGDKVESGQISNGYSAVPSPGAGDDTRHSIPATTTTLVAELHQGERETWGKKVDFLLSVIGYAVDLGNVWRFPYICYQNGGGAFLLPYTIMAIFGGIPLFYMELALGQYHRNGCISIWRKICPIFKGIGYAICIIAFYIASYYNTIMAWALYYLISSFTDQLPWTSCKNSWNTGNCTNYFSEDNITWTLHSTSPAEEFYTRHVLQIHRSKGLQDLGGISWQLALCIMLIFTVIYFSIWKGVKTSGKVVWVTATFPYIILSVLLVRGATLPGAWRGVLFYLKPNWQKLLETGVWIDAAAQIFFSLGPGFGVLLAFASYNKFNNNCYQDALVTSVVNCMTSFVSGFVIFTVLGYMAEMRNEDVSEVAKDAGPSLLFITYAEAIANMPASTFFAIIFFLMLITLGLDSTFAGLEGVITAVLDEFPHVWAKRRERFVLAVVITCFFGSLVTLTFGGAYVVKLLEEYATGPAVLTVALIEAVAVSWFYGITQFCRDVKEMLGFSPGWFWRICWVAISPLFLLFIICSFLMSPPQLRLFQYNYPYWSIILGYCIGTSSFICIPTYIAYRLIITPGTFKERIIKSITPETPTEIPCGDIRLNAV

hSERT [3] = biological target: T2, hSERT; test: hSERT membrane radioligand binding assay (3H-citalopram), Assay 1; details: SERT pKi, hSERT HEK-293 membranes, 1.0 nM 3H-citalopram; values given as lower bounds
Protocol: Membrane radioligand binding assays were used to measure inhibition of labeled ligand (^3H-citalopram or ^3H-nisoxetine or ^3H-WIN35428) binding to membranes prepared from cells expressing the respective human recombinant transporter (hSERT or hNET or hDAT) in order to determine the pKi values of test compounds at the transporters.
Recombinant human embryonic kidney (HEK-293) derived cell lines stably transfected with hSERT or hNET, respectively, were grown in DMEM medium supplemented with 10% dialyzed FBS (for hSERT) or FBS (for hNET), 100 μg/mL penicillin, 100 μg/mL streptomycin, 2 mM L-glutamine and 250 μg/mL of the aminoglycoside antibiotic G418, in a 5% CO2 humidified incubator at 37° C. When cultures reached 80% confluence, the cells were washed thoroughly in PBS (without Ca^2+ and Mg^2+) and lifted with 5 mM EDTA in PBS. Cells were pelleted by centrifugation, resuspended in lysis buffer (10 mM Tris-HCl, pH7.5 containing 1 mM EDTA), homogenized, pelleted by centrifugation, then resuspended in 50 mM Tris-HCl, pH 7.5 and 10% sucrose at 4° C. Protein concentration of the membrane suspension was determined using a Bio-Rad Bradford Protein Assay kit. Membranes were snap frozen and stored at −80° C.
Binding assays were performed in a 96-well assay plate in a total volume of 200 μl assay buffer (50 mM Tris-HCl, 120 mM NaCl, 5 mM KCl, pH 7.4) with 0.5, 1, and 3 μg membrane protein, for SERT, NET and DAT, respectively.
Stock solutions (10 mM in DMSO) of test compound were prepared and serial dilutions made using Dilution Buffer (50 mM Tris-HCl, 120 mM NaCl, 5 mM KCl, pH 7.4, 0.1% BSA, 400 μM ascorbic acid).
Following a 60 minute incubation at 22° C. (or a period sufficient to reach equilibrium), the membranes were harvested by rapid filtration over a 96-well UniFilter GF/B plate, pretreated with 0.3% polyethyleneimine, and washed 6 times with 300 μl wash buffer (50 mM Tris-HCl, 0.9% NaCl, pH 7.5 at 4° C.). Plates were dried overnight at room temperature, approximately 45 μl of MicroScint™-20 (Perkin Elmer) added and bound radioactivity quantitated via liquid scintillation spectroscopy. Inhibition curves and saturation isotherms were analyzed using GraphPad Prism Software package (GraphPad Software, Inc., San Diego, Calif.). IC50 values were generated from concentration response curves using the Sigmoidal Dose Response (variable slope) algorithm in Prism GraphPad.

hNET [4] = biological target: T1, hNET; test: hNET neurotransmitter uptake assay (3H-NE), Assay 2; assay type: cell-based; parameters: expressed in transfected cells; host or cells: HEK-293; details: norepinephrine reuptake inhibition, 3H-NE uptake, HEK-293 hNET cells (values without asterisk); read-out: NET pIC50 (converted)

T1 sequence (P23975 whole entry): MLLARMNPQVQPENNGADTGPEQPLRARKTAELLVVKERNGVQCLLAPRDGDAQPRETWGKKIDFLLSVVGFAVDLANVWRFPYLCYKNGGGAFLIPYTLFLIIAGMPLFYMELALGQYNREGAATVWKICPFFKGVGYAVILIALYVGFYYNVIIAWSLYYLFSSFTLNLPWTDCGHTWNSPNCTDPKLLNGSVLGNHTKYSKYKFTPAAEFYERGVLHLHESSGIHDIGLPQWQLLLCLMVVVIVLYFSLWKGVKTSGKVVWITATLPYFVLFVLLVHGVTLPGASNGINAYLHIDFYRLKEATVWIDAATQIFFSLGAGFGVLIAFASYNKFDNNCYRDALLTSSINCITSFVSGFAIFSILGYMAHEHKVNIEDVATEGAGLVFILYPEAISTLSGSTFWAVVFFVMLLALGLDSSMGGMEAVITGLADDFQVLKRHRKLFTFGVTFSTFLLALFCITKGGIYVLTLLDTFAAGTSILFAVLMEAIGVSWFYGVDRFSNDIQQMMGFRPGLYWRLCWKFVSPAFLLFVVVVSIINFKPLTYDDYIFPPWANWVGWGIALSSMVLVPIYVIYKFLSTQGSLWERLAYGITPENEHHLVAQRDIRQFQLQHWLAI

| Structure (SMILES) | Ki (hNET [1]) [nM] | IC50 (hSERT [2]) [nM] | Ki (hSERT [3]) [nM] | IC50 (hNET [4]) [nM] |
| --- | --- | --- | --- | --- |
| CC(C)C[C@H](Oc1cc(F)cc(Cl)c1)[C@H]1CCNC1 [Example 10-81, (S)-3-[(S)-1-(3-Chloro-5-fluorophenoxy)-3-methylbutyl]pyrrolidine] | ≤ 10 | ≤ 10 | ≤ 10 | ≤ 10 |
| CC(C)CC(Oc1cc(F)cc(Cl)c1)C1CCNC1 (stereo not shown) [Example 10-82, 3-[1-(3-Chloro-5-fluorophenoxy)-3-methylbutyl]pyrrolidine] | ≤ 10 | ≤ 10 | ≤ 10 | ≤ 10 |
| CC(C)CC(Oc1c(Cl)c(F)cc(F)c1Cl)C1CCNC1 (stereo not shown) [Example 10-84, 3-[1-(2,6-Dichloro-3,5-difluorophenoxy)-3-methylbutyl]pyrrolidine] | ≤ 10 | ≤ 10 | ≤ 10 | ≤ 10 |
| CC(C)C[C@H](Oc1c(F)c(F)cc(F)c1Cl)[C@H]1CCNC1 [Example 10-86, (S)-3-[(S)-1-(2-Chloro-3,5,6-trifluorophenoxy)-3-methylbutyl]pyrrolidine] | ≤ 10 | ≤ 10 | ≤ 10 | ≤ 10 |
| CC[C@H](Oc1cccc2ccccc12)[C@H]1CCNC1 [Example 13, (S)-3-[(s)-1-(Naphthalen-1-yloxy)propyl]pyrrolidine] | ≤ 10 | ≤ 10 | ≤ 10 | ≤ 10 |
| CC[C@@H](Oc1cccc2ccccc12)[C@H]1CCNC1 [Example 14-1, (S)-3-[(R)-1-(Naphthalen-1-yloxy)propyl]pyrrolidine] | ≤ 10 | ≤ 10 | ≤ 10 | ≤ 10 |
| CCC[C@@H](Oc1cccc2ccccc12)[C@H]1CCNC1 [Example 14-2, (S)-3-[(R)-1-(Naphthalen-1-yloxy)butyl]pyrrolidine] | ≤ 10 | ≤ 10 | ≤ 10 | ≤ 10 |
| CCC[C@H](Oc1cccc2ccccc12)[C@H]1CCNC1 [Example 14-3, (S)-3-[(S)-1-(Naphthalen-1-yloxy)butyl]pyrrolidine] | ≤ 10 | ≤ 10 | ≤ 10 | ≤ 10 |
| CC(C)[C@H](Oc1cccc2ccccc12)[C@H]1CCNC1 [Example 14-5, (S)-3-[(S)-2-Methyl-1-(naphthalen-1-yloxy)propyl]pyrrolidine] | ≤ 10 | ≤ 10 | ≤ 10 | ≤ 10 |
| Cc1ccccc1O[C@@H](C1CC1)[C@H]1CCNC1 [Example 16-3, (S)-3-((S)cyclopropyl-o-tolyloxymethyl)pyrrolidine] | ≤ 10 | ≤ 316 | ≤ 100 | ≤ 10 |
| Clc1cccc(O[C@H](C2CC2)[C@H]2CCNC2)c1Cl [Example 16-7, (S)-3-[(R)cyclopropyl-(2,3-dichlorophenoxy)methyl]pyrrolidine] | ≤ 10 | ≤ 10 | ≤ 10 | ≤ 10 |
| Clc1cccc(O[C@@H](C2CC2)[C@H]2CCNC2)c1Cl [Example 16-8, (S)-3-[(S)cyclopropyl-(2,3-dichlorophenoxy)methyl]pyrrolidine] | ≤ 10 | ≤ 10 | ≤ 10 | ≤ 10 |
| Fc1cccc(O[C@@H](C2CC2)[C@H]2CCNC2)c1Cl [Example 16-9, (S)-3-[(S)-(2-Chloro-3-fluorophenoxy)cyclopropylmethyl]pyrrolidine] | ≤ 10 | ≤ 100 | ≤ 10 | ≤ 10 |
| Fc1cccc(O[C@H](C2CC2)[C@H]2CCNC2)c1Cl [Example 16-10, (S)-3-[(R)-(2-Chloro-3-fluorophenoxy)cyclopropylmethyl]pyrrolidine] | ≤ 10 | ≤ 100 | ≤ 10 | ≤ 100 |
| FC(F)(F)c1c(Cl)cccc1O[C@@H](C1CC1)[C@H]1CCNC1 [Example 16-16, (S)-3-[(S)-(3-Chloro-2-trifluoromethylphenoxy)cyclopropylmethyl]pyrrolidine] | ≤ 10 | ≤ 10 | ≤ 10 | ≤ 10 |
| Clc1ccc(O[C@@H](C2CC2)[C@H]2CCNC2)c(Cl)c1 [Example 16-19, (S)-3-[(S)cyclopropyl-(2,4-dichlorophenoxy)methyl]pyrrolidine] | ≤ 10 | ≤ 10 | ≤ 10 | ≤ 10 |
| Fc1ccc(O[C@@H](C2CC2)[C@H]2CCNC2)c(Cl)c1 [Example 16-22, (S)-3-[(S)-(2-Chloro-4-fluorophenoxy)cyclopropylmethyl]pyrrolidine] | ≤ 10 | ≤ 100 | ≤ 10 | ≤ 10 |

| Structure (SMILES) | Ki (hNET [1]) [nM] | IC50 (hSERT [2]) [nM] | Ki (hSERT [3]) [nM] | IC50 (hNET [4]) [nM] |
| --- | --- | --- | --- | --- |
| Cc1ccc(O[C@@H](C2CC2)[C@H]2CCNC2)c(Cl)c1 [Example 16-23, (S)-3-[(S)-(2-Chloro-4-methylphenoxy)cyclopropylmethyl]pyrrolidine] | ≤ 10 | ≤ 10 | ≤ 10 | ≤ 10 |
| Cc1ccc(O[C@@H](C2CC2)[C@H]2CCNC2)c(Br)c1 [Example 16-25, (S)-3-[(S)-(2-Bromo-4-methylphenoxy)cyclopropylmethyl]pyrrolidine] | ≤ 10 | ≤ 10 | ≤ 10 | ≤ 10 |
| Cc1ccc(O[C@@H](C2CC2)[C@H]2CCNC2)c(C)c1 [Example 16-28, (S)-3-[(S)cyclopropyl-(2,4-dimethylphenoxy)-methyl]pyrrolidine] | ≤ 10 | ≤ 10 | ≤ 10 | ≤ 10 |
| Cc1cc(Cl)ccc1O[C@@H](C1CC1)[C@H]1CCNC1 [Example 16-29, (S)-3-[(S)-(4-Chloro-2-methylphenoxy)cyclopropylmethyl]pyrrolidine] | ≤ 10 | ≤ 10 | ≤ 10 | ≤ 10 |
| CCc1cc(F)ccc1O[C@H](C1CC1)[C@H]1CCNC1 [Example 16-33, (S)-3-[(R)cyclopropyl-(2-ethyl-4-fluorophenoxy)-methyl]pyrrolidine] | ≤ 10 | ≤ 100 | ≤ 100 | ≤ 10 |
| CCc1cc(F)ccc1O[C@@H](C1CC1)[C@H]1CCNC1 [Example 16-34, (S)-3-[(S)cyclopropyl-(2-ethyl-4-fluorophenoxy)-methyl]pyrrolidine] | ≤ 10 | ≤ 10 | ≤ 10 | ≤ 10 |
| COc1cc(Cl)ccc1O[C@@H](C1CC1)[C@H]1CCNC1 [Example 16-37, (S)-3-[(S)-(4-Chloro-2-methoxyphenoxy)cyclopropylmethyl]pyrrolidine] | ≤ 10 | ≤ 10 | ≤ 10 | ≤ 10 |
| COc1cc(Cl)ccc1O[C@H](C1CC1)[C@H]1CCNC1 [Example 16-38, (S)-3-[(R)-(4-Chloro-2-methoxyphenoxy)cyclopropylmethyl]pyrrolidine] | ≤ 10 | ≤ 10 | ≤ 10 | ≤ 100 |
| Clc1cccc(Cl)c1O[C@@H](C1CC1)[C@H]1CCNC1 [Example 16-44, (S)-3-[(S)cyclopropyl-(2,6-dichlorophenoxy)-methyl]pyrrolidine] | ≤ 10 | ≤ 316 | ≤ 100 | ≤ 10 |
| Cc1ccc(O[C@H](C2CC2)[C@H]2CCNC2)c(F)c1F [Example 16-51, (S)-3-[(R)cyclopropyl-(2,3-difluoro-4-methylphenoxy)methyl]pyrrolidine] | ≤ 10 | ≤ 10 | ≤ 10 | ≤ 10 |
| COc1c(O[C@@H](C2CC2)[C@H]2CCNC2)ccc(Cl)c1Cl [Example 16-55, (S)-3-[(S)cyclopropyl-(3,4-dichloro-2-methoxyphenoxy)methyl]pyrrolidine] | ≤ 10 | ≤ 10 | ≤ 10 | ≤ 10 |
| Clc1ccc(Cl)c(O[C@@H](C2CC2)[C@H]2CCNC2)c1Cl [Example 16-58, (S)-3-[(S)cyclopropyl-(2,3,6-trichlorophenoxy)methyl]pyrrolidine] | ≤ 10 | ≤ 100 | ≤ 10 | ≤ 10 |
| Fc1ccc(F)c(O[C@@H](C2CC2)[C@H]2CCNC2)c1Cl [Example 16-61, (S)-3-[(S)-(2-Chloro-3,6-difluorophenoxy)cyclopropylmethyl]pyrrolidine] | ≤ 10 | ≤ 100 | ≤ 10 | ≤ 10 |
| COc1ccc(F)c(O[C@H](C2CC2)[C@H]2CCNC2)c1Cl [Example 16-65, (S)-3-[(R)-(2-Chloro-6-fluoro-3-methoxyphenoxy)cyclopropylmethyl]pyrrolidine] | ≤ 10 | ≤ 10 | ≤ 10 | ≤ 10 |
| Fc1cc(Cl)cc(Cl)c1O[C@H](C1CC1)[C@H]1CCNC1 [Example 16-76, (S)-3-[(R)cyclopropyl-(2,4-dichloro-6-fluorophenoxy)methyl]pyrrolidine] | ≤ 10 | ≤ 10 | ≤ 10 | ≤ 10 |
| Cc1cc(Cl)cc(Cl)c1O[C@@H](C1CC1)[C@H]1CCNC1 [Example 16-77, (S)-3-[(S)cyclopropyl-(2,4-dichloro-6-methylphenoxy)methyl]pyrrolidine] | ≤ 10 | ≤ 10 | ≤ 10 | ≤ 100 |
| Fc1cc(Cl)cc(F)c1O[C@@H](C1CC1)[C@H]1CCNC1 [Example 16-79, (S)-3-[(S)-(4-Chloro-2,6-difluorophenoxy)cyclopropylmethyl]pyrrolidine] | ≤ 10 | ≤ 10 | ≤ 10 | ≤ 10 |
